The values that follow come from US9526728B2, “Medical use of a DPP-4 inhibitor” (Boehringer Ingelheim International GmbH, priority 2014, dated 2016).

The conditions of series [1]: CKD population; need for dose adjustment; cited from earlier work.
The nature of series [2]: Metabolic parameters (HbA1c, active GLP-1). The conditions noted are these: seven weeks; for plasma active GLP-1 levels: both sham and SNx rats, linagliptin 1.5 mg/kg/day or sitagliptin 20 mg/kg/day; for HbA1c: sham and SNx rats, linagliptin 1.5 mg/kg/day or sitagliptin 20 mg/kg/day oral gavage. Format: in vivo, rat. From the text: (§1) Briefly, animals were anesthetized with 2.5% inhaled isoflurane, the right kidney was removed via subcapsular nephrectomy and infarction of approximately two thirds of the left kidney was achieved via selective ligation of two out of the three or four branches of the left renal artery. Sham surgery consisted of laparotomy and manipulation of both kidneys before wound closure. Rats were followed for eight weeks after surgery. […] All rats were housed in a stable environment and allowed free access to Reverse Osmosis water and standard rat chow.
Blood glucose was measured with Accu-check Advantage (Roche, Mississauga, Ontario). HbA1c was measured using A1cNow+ (Bayer, Sunnyvale, Calif.). Active GLP-1 was determined using active GLP-1 (v2) kit (Meso Scale Discovery, Rockville, Md.).
Sham and SNx rats treated with vehicle, linagliptin and sitagliptin. Heart weights and kidney weights were increased in SNx rats relative to sham. HbA1c was unchanged in all treatment groups.

Series [3] concerns subtotally nephrectomized (SNx) rats. The series is described as follows: Cardiac catheterization, pressure volume loops (cardiac function). In kind it is in vivo, rat. The settings on record: in comparison to vehicle-treated SNx rats, linagliptin 1.5 mg/kg/day or sitagliptin 20 mg/kg/day, seven weeks.
Excerpt: as §1
Cardiac catheterization was performed as previously published. Briefly, rats were anesthetized (2% isoflurane), placed on a warming pad (37 °C), intubated and ventilated using positive pressure. The right internal carotid artery was ligated cranially and a 2F miniaturized combined conductance catheter-micromanometer (Model SPR-838, Millar Instruments, Houston, Tex.) was inserted into the carotid artery and advanced into the left ventricle until stable pressure volume (PV) loops were obtained. […] All PV loops were obtained with the ventilator turned off for 5-10 seconds and the animal apneic. […] A range of functional parameters were then calculated using the pressure conductance data (Millar analysis software PVAN 3.4).

For series [4] the test system is unchanged. Put plainly: Cardiac gene expression (real time PCR). Format: in vivo, rat. The settings on record: SNx rats vs vehicle-treated SNx; seven weeks treatment. From the text:
Briefly, animals were anesthetized with 2.5% inhaled isoflurane, the right kidney was removed via subcapsular nephrectomy and infarction of approximately two thirds of the left kidney was achieved via selective ligation of two out of the three or four branches of the left renal artery. Sham surgery consisted of laparotomy and manipulation of both kidneys before wound closure. Rats were followed for eight weeks after surgery. […] All rats were housed in a stable environment and allowed free access to Reverse Osmosis water and standard rat chow. RNA was isolated from homogenized rat heart tissue using TRIzol reagent (Life Technologies, Grand Island, N.Y.). Total RNA (4 μg) was treated with RQ1 DNase (1U/μl) (Promega, Madison, Wis.). DNase treated RNA (4 μg) was reverse-transcribed in a final volume of 25 μl using 0.5 μl AMV-RT (Roche Diagnostics, Laval, Quebec) in the manufacturer's buffer containing 1 mmol/L dNTPs, 0.5 μl RNase inhibitor (Roche) and 2 μg random hexamers (GE Healthcare Life Sciences, Baie d'Urfe, Quebec). […]
In general terms: Real-time PCR tracks product formation cycle by cycle.

Series [5] has the same test system. Put plainly: Immunohistochemistry for cardiac collagen I. In kind it is in vivo, rat. The conditions noted are these: SNx rats vs vehicle-treated SNx; seven weeks treatment.
Excerpt: as §1
Immunohistochemistry for fibrillar collagen type I (Southern Biotech, Birmingham, Ala.) was performed as previously described with the antibody used at a concentration of 1:400. Stained heart sections were scanned with the Aperio ScanScope system (Aperio, Vista, Calif.) and analysed with ImageScope (Aperio). Interstitial collagen I was determined as the proportional area of positive immunostaining in 10 randomly selected fields (×100 magnification).

For series [6] the test system is unchanged. Put plainly: Myocyte hypertrophy (H&E stained sections). The settings on record: SNx rats vs vehicle-treated SNx; seven weeks treatment. In kind it is in vivo, rat.
Excerpt: as §1
Cardiac myocyte hypertrophy was determined on haematoxylin and eosin (H&E) stained sections, as previously reported. Myocyte cross sectional area was determined on H&E stained sections as adapted from the methods described by Frustaci and colleagues.

Series [7] shares this test system. The series is described as follows: Renal function (blood pressure, urine protein excretion, GFR). The conditions noted are these: seven weeks treatment; for GFR: FITC-inulin clearance. Format: in vivo, rat.
Excerpt: as §1
For estimation of urine protein excretion, rats were individually housed in metabolic cages for 24 h with free access to tap water and standard diet. Urine protein was measured with the benzethonium chloride method. Urinary excretion of markers of renal injury was determined using Rat KidneyMAP v1.0 (Myriad RBM, Austin, Tex.) and expressed as the ratio to urine creatinine determined by autoanalyzer. Glomerular filtration rate (GFR) was determined by FITC-inulin clearance, as previously described.

Series [8] deals with sham and subtotally nephrectomized (SNx) rats. Put plainly: Renal structure (glomerulosclerosis index, JG-12 and collagen IV immunohistochemistry). Format: in vivo, rat. The settings on record: either sham or SNx rats; seven weeks treatment.
Excerpt: as §1
A minimum of 50 glomeruli were examined in PAS-stained kidney sections from each rat. […] Glomerulosclerosis was defined as basement membrane thickening, mesangial hypertrophy and capillary occlusion. A glomerulosclerosis index (GSI) was then calculated using the formula:
[formula] Where Fi is the percentage of glomeruli in the rat kidney with a given score (i).
Immunohistochemistry for glomerular capillary density and tubulointerstitial collagen IV Immunohistochemistry of kidney tissue was performed as previously described with antibodies in the following concentrations: JG-12 1:1000 (Bender Medsystems GbdH, Vienna, Austria) and collagen IV 1:100 (Southern Biotech). Kidney sections were scanned with the Aperio ScanScope system and analysed with ImageScope, as already described. Glomerular endothelial (JG-12) immunostaining was determined in 30 glomerular profiles from each rat kidney section. For estimation of tubulointerstitial collagen IV, the proportional area of positive immunostaining (excluding glomeruli) was determined in 10 randomly selected cortical fields (×100 magnification).

For series [9], the system named is patients with type 2 diabetes. The conditions noted are these: recent meta-analysis; cited from earlier work.

As for `Cn1c(=O)cc(N2CCC[C@@H](N)C2)n(Cc2ccccc2C#N)c1=O` [alogliptin], the route of clearance result in [1] was “cleared in the urine”.
For `CC#CCn1c(N2CCC[C@@H](N)C2)nc2c1c(=O)n(Cc1nc(C)c3ccccc3n1)c(=O)n2C` [linagliptin, 1-[(4-methyl-quinazolin-2-yl)methyl]-3-methyl-7-(2-butyn-1-yl)-8-(3-(R)-amino-piperidin-1-yl)-xanthine], in series [2], the “plasma active GLP-1 levels” value is reported as “similarly increased” and the HbA1c result is reported as “unchanged”. Besides, the “end diastolic pressure volume relationship (EDPVR)” value in series [3] is “significantly lower”. Also, the “cardiac collagen I mRNA” value in [4] is “attenuation in the overexpression”. Further, in [5], the “cardiac collagen I protein” value is “attenuation in the overexpression”. For the same compound, in series [6], the “cardiomyocyte size determined in H&E stained sections” value was “neither cardiomyocyte size determined in H&E stained sections (FIGS. 2C1 and 2C2) nor α-MHC:β-MHC ratio were changed”. Further, in series [7], the GFR entry was “neither linagliptin nor sitagliptin significantly affected”, the blood pressure entry is recorded as “neither linagliptin nor sitagliptin significantly affected” and the proteinuria entry was “neither linagliptin nor sitagliptin significantly affected”. Besides, in series [8], the “cortical tubulointerstitial collagen IV immunostaining” value is on record as “None of these markers of renal structural injury were affected” and the “glomerular capillary density (JG-12 immunostaining)” value is on record as “None of these markers of renal structural injury were affected”. Further, the route of clearance result in [1] is reported as “secreted via the bile”. In series [9], the albuminuria entry is recorded as “reduction in albuminuria”.
For the compound `N#C[C@@H]1C[C@@H]2C[C@@H]2N1C(=O)[C@@H](N)C12CC3CC(CC(O)(C3)C1)C2` [saxagliptin], in series [1], the route of clearance result is recorded as “cleared in the urine”.
For `N[C@@H](CC(=O)N1CCn2c(nnc2C(F)(F)F)C1)Cc1cc(F)c(F)cc1F` [sitagliptin], in [2], the “plasma active GLP-1 levels” value was “similarly increased” and the HbA1c entry is recorded as “unchanged”. For the same compound, the “end diastolic pressure volume relationship (EDPVR)” value in series [3] is “significantly lower”. In addition, in series [4], the “cardiac collagen I mRNA” value is reported as “attenuation in the overexpression”. Besides, the “cardiac collagen I protein” value in series [5] is listed as “attenuation in the overexpression”. Also, in series [6], the “cardiomyocyte size determined in H&E stained sections” value was “neither cardiomyocyte size determined in H&E stained sections (FIGS. 2C1 and 2C2) nor α-MHC:β-MHC ratio were changed”. In addition, in [7], the GFR entry is “neither linagliptin nor sitagliptin significantly affected”, the blood pressure result is “neither linagliptin nor sitagliptin significantly affected” and the proteinuria result is recorded as “neither linagliptin nor sitagliptin significantly affected”. Besides, in [8], the “cortical tubulointerstitial collagen IV immunostaining” value is reported as “None of these markers of renal structural injury were affected” and the “glomerular capillary density (JG-12 immunostaining)” value is given as “None of these markers of renal structural injury were affected”. Moreover, the route of clearance result in series [1] is “cleared in the urine”.
